According to patent US9783532B2, “Molecules having certain pesticidal utilities, and intermediates, compositions, and processes related thereto” (Dow AgroSciences LLC, priority 2013, dated 2017):

Columns and labels:
[1] = test system: Cabbage Looper (Trichoplusia ni) ("CL"); assay: Bioassay on cabbage looper (CL), 128-well diet tray assay; format: in vivo; conditions: 168 h, 50 μg/cm^2 on artificial diet, second instar CL larvae, 25° C., five to seven days, average of eight wells, read-out: CL % Control (or Mortality) rating
Summary of the method: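 Second-instar larvae (one to five per well) placed on artificial diet surface-treated with 50 μg/cm^2 compound in 90:10 acetone-water, dried before infestation. Held 25 °C, 14:10 light-dark for five to seven days; percent mortality scored per well and averaged over eight wells.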

[2] = test system: Beet Armyworm (Spodoptera exigua) ("BAW"); assay: Bioassay on beet armyworm (BAW), 128-well diet tray assay; format: in vivo; conditions: 168 h, 50 μg/cm^2 on artificial diet, second instar BAW larvae, 25° C., five to seven days, average of eight wells, read-out: BAW % Control (or Mortality) rating
Summary of the method: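 Second-instar larvae (one to five per well) were placed on artificial diet surface-treated with 50 μg/cm^2 compound applied in 90:10 acetone-water and dried, eight wells per compound. Held at 25° C., 14:10 light-dark for five to seven days; percent mortality was scored per well and averaged over the eight wells.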

Compound	mortality at 50 µg/cm2 [1]	mortality at 50 µg/cm2 [2]
CCc1ccccc1N1C(=O)CS/C1=N\C(=O)NCCCc1ccc(-c2ncn(-c3ccc(OC(F)(F)F)cc3)n2)cc1 [P93, P510, (Z)-1-(3-(2-ethylphenyl)-4-oxothiazolidin-2-ylidene)-3-(3-(4-(1-(4-(trifluoromethoxy)phenyl)-1H-1,2,4-triazol-3-yl)phenyl)propyl)urea]	50 to 100%	50 to 100%
CC(C)c1ccccc1N1C(=O)CS/C1=N\C(=O)NCCCc1ccc(-c2ncn(-c3ccc(OC(F)(F)F)cc3)n2)cc1 [P94, P197, (Z)-1-(3-(2-isopropylphenyl)-4-oxothiazolidin-2-ylidene)-3-(3-(4-(1-(4-(trifluoromethoxy)phenyl)-1H-1,2,4-triazol-3-yl)phenyl)propyl)urea]	50 to 100%	50 to 100%
CCCc1ccc(C)cc1N1C(=O)CS/C1=N\C(=O)NCCCc1ccc(-c2ncn(-c3ccc(OC(F)(F)F)cc3)n2)cc1 [P99, P830, (Z)-1-(3-(5-methyl-2-propylphenyl)-4-oxothiazolidin-2-ylidene)-3-(3-(4-(1-(4-(trifluoromethoxy)phenyl)-1H-1,2,4-triazol-3-yl)phenyl)propyl)urea]	50 to 100%	50 to 100%
Cc1ccc(N2C(=O)CS/C2=N\C(=O)NCCCc2ccc(-c3ncn(-c4ccc(OC(F)(F)F)cc4)n3)cc2)c(C(C)C)c1 [P102, (Z)-1-(3-(2-isopropyl-4-methylphenyl)-4-oxothiazolidin-2-ylidene)-3-(3-(4-(1-(4-(trifluoromethoxy)phenyl)-1H-1,2,4-triazol-3-yl)phenyl)propyl)urea]	50 to 100%	50 to 100%
CC(C)c1cc(F)ccc1N1C(=O)CS/C1=N\C(=O)NCCCc1ccc(-c2ncn(-c3ccc(OC(F)(F)F)cc3)n2)cc1 [P103, P1150, (Z)-1-(3-(4-fluoro-2-isopropylphenyl)-4-oxothiazolidin-2-ylidene)-3-(3-(4-(1-(4-(trifluoromethoxy)phenyl)-1H-1,2,4-triazol-3-yl)phenyl)propyl)urea]	50 to 100%	50 to 100%
COc1ccc(N2C(=O)CS/C2=N\C(=O)NCCCc2ccc(-c3ncn(-c4ccc(OC(F)(F)F)cc4)n3)cc2)c(C)c1 [P105, (Z)-1-(3-(4-methoxy-2-methylphenyl)-4-oxothiazolidin-2-ylidene)-3-(3-(4-(1-(4-(trifluoromethoxy)phenyl)-1H-1,2,4-triazol-3-yl)phenyl)propyl)urea]	50 to 100%	50 to 100%
Cc1ccccc1N1C(=O)CS/C1=N\C(=O)NCCCc1cccc(-c2ncn(-c3ccc(OC(F)(F)F)cc3)n2)c1 [P118, (Z)-1-(4-oxo-3-(o-tolyl)thiazolidin-2-ylidene)-3-(3-(3-(1-(4-(trifluoromethoxy)phenyl)-1H-1,2,4-triazol-3-yl)phenyl)propyl)urea]	50 to 100%	50 to 100%
CCc1ccccc1N1C(=O)CS/C1=N\C(=O)NCCCc1cccc(-c2ncn(-c3ccc(OC(F)(F)F)cc3)n2)c1 [P119, (Z)-1-(3-(2-ethylphenyl)-4-oxothiazolidin-2-ylidene)-3-(3-(3-(1-(4-(trifluoromethoxy)phenyl)-1H-1,2,4-triazol-3-yl)phenyl)propyl)urea]	50 to 100%	50 to 100%
CC(C)c1ccccc1N1C(=O)CS/C1=N\C(=O)NCCCc1cccc(-c2ncn(-c3ccc(OC(F)(F)F)cc3)n2)c1 [P120, (Z)-1-(3-(2-isopropylphenyl)-4-oxothiazolidin-2-ylidene)-3-(3-(3-(1-(4-(trifluoromethoxy)phenyl)-1H-1,2,4-triazol-3-yl)phenyl)propyl)urea]	50 to 100%	50 to 100%
Cc1ccc(C(C)C)c(N2C(=O)CS/C2=N\C(=O)NCCCc2cccc(-c3ncn(-c4ccc(OC(F)(F)F)cc4)n3)c2)c1 [P124, (Z)-1-(3-(2-isopropyl-5-methylphenyl)-4-oxothiazolidin-2-ylidene)-3-(3-(3-(1-(4-(trifluoromethoxy)phenyl)-1H-1,2,4-triazol-3-yl)phenyl)propyl)urea]	50 to 100%	50 to 100%
CCCc1ccc(C)cc1N1C(=O)CS/C1=N\C(=O)NCCCc1cccc(-c2ncn(-c3ccc(OC(F)(F)F)cc3)n2)c1 [P125, (Z)-1-(3-(5-methyl-2-propylphenyl)-4-oxothiazolidin-2-ylidene)-3-(3-(3-(1-(4-(trifluoromethoxy)phenyl)-1H-1,2,4-triazol-3-yl)phenyl)propyl)urea]	50 to 100%	50 to 100%
CCc1cccc(C)c1N1C(=O)CS/C1=N\C(=O)NCCCc1cccc(-c2ncn(-c3ccc(OC(F)(F)F)cc3)n2)c1 [P127, (Z)-1-(3-(2-ethyl-6-methylphenyl)-4-oxothiazolidin-2-ylidene)-3-(3-(3-(1-(4-(trifluoromethoxy)phenyl)-1H-1,2,4-triazol-3-yl)phenyl)propyl)urea]	50 to 100%	50 to 100%
Cc1ccc(N2C(=O)CS/C2=N\C(=O)NCCCc2cccc(-c3ncn(-c4ccc(OC(F)(F)F)cc4)n3)c2)c(C(C)C)c1 [P128, (Z)-1-(3-(2-isopropyl-4-methylphenyl)-4-oxothiazolidin-2-ylidene)-3-(3-(3-(1-(4-(trifluoromethoxy)phenyl)-1H-1,2,4-triazol-3-yl)phenyl)propyl)urea]	50 to 100%	50 to 100%
CC(C)c1cc(F)ccc1N1C(=O)CS/C1=N\C(=O)NCCCc1cccc(-c2ncn(-c3ccc(OC(F)(F)F)cc3)n2)c1 [P129, (Z)-1-(3-(4-fluoro-2-isopropylphenyl)-4-oxothiazolidin-2-ylidene)-3-(3-(3-(1-(4-(trifluoromethoxy)phenyl)-1H-1,2,4-triazol-3-yl)phenyl)propyl)urea]	50 to 100%	50 to 100%
COc1ccc(N2C(=O)CS/C2=N\C(=O)NCCCc2cccc(-c3ncn(-c4ccc(OC(F)(F)F)cc4)n3)c2)c(C)c1 [P131, (Z)-1-(3-(4-methoxy-2-methylphenyl)-4-oxothiazolidin-2-ylidene)-3-(3-(3-(1-(4-(trifluoromethoxy)phenyl)-1H-1,2,4-triazol-3-yl)phenyl)propyl)urea]	50 to 100%	50 to 100%
Cc1ccccc1N1C(=O)CS/C1=N\C(=O)NCCCCc1cccc(-c2ncn(-c3ccc(OC(F)(F)F)cc3)n2)c1 [P170, (Z)-1-(4-oxo-3-(o-tolyl)thiazolidin-2-ylidene)-3-(4-(3-(1-(4-(trifluoromethoxy)phenyl)-1H-1,2,4-triazol-3-yl)phenyl)butyl)urea]	50 to 100%	0%
CCc1ccccc1N1C(=O)CS/C1=N\C(=O)NCCCCc1cccc(-c2ncn(-c3ccc(OC(F)(F)F)cc3)n2)c1 [P171, (Z)-1-(3-(2-ethylphenyl)-4-oxothiazolidin-2-ylidene)-3-(4-(3-(1-(4-(trifluoromethoxy)phenyl)-1H-1,2,4-triazol-3-yl)phenyl)butyl)urea]	50 to 100%	50 to 100%
CC(C)c1ccccc1N1C(=O)CS/C1=N\C(=O)NCCCCc1cccc(-c2ncn(-c3ccc(OC(F)(F)F)cc3)n2)c1 [P172, (Z)-1-(3-(2-isopropylphenyl)-4-oxothiazolidin-2-ylidene)-3-(4-(3-(1-(4-(trifluoromethoxy)phenyl)-1H-1,2,4-triazol-3-yl)phenyl)butyl)urea]	50 to 100%	50 to 100%
